Experimental data taken from patent US20250073351A1, “IMPROVED COMPOSITIONS FOR DELIVERY OF MRNA” (TRANSLATE BIO, INC., priority 2021, published 2025).

Tested on: lungs of mice
Assay: In vivo screen of cationic lipids for pulmonary delivery of FFL mRNA-LNP (IVIS imaging)
Details: LNP with DOPE, DMG-PEG2K, optionally cholesterol; about 5 hours post-dose
Procedure: In this example, various cationic lipids were tested for in Wvo efficacy when mRNA encapsulated in lipid nanoparticles (mRNA-LNP) were administered to mice by pulmonary delivery. The cationic lipids were tested for both potency, as determined by levels of protein production, and tolerability, as determined by side effects associated with clearance and metabolism.
About 150 cationic lipids were tested. (FIG. 16). Each cationic lipid was used in preparing lipid nanoparticles encapsulating mRNA encoding firefly luciferase protein (FFL mRNA) according to methods known in the art. For example, suitable methods for mRNA encapsulation include methods described in International Publication Nos. WO2016/004318 and WO 2018/089801, which are hereby incorporated by reference in their entirety. The tested lipid nanoparticles comprised a lipid component consisting of a cationic lipid, a non-cationic lipid (DOPE), a PEG-modified lipid (DMG-PEG2K), and optionally cholesterol.
Lipid nanoparticle formulations comprising FFL mRNA were administered to mice. At approximately 5 hours post-dose, the animals were dosed with luciferin by intraperitoneal injection and all animals were imaged using an IVIS imaging system to measure luciferase production in the lung. […] Some cationic lipids remarkably had greater than 50-fold increase in pulmonary protein expression as compared to other cationic lipids.

Row | Structure (SMILES) | potency as determined by the average radiance detected in mouse lungs
1 | CCCCCCCCC(O)CN(CCCCC(=O)OCCN1CC(C)N(CCOC(=O)CCCCN(CC(O)CCCCCCCC)CC(O)CCCCCCCC)CC1C)CC(O)CCCCCCCC (stereo not drawn) [HEP-E4-E10] | particularly high potency
2 | CCCCC/C=C\C/C=C\CCCCCCCC(=O)OCC(COC(=O)CCCCCCC/C=C\C/C=C\CCCCC)(COC(=O)CCCCCCC/C=C\C/C=C\CCCCC)NCCS(=O)(=O)NCCCN(C)C [GL-TES-SA-DMP-E18-2] | particularly high potency
3 | CCCCCCCCC(O)CN(CCCC(=O)OCCN1CC(C)N(CCOC(=O)CCCN(CC(O)CCCCCCCC)CC(O)CCCCCCCC)CC1C)CC(O)CCCCCCCC (stereo not drawn) [HEP-E3-E10] | particularly high potency
4 | CCCCC/C=C\C/C=C\CCCCCCCC(=O)OCC(COC(=O)CCCCCCC/C=C\C/C=C\CCCCC)(COC(=O)CCCCCCC/C=C\C/C=C\CCCCC)NCCS(=O)(=O)NCCN(C)C [GL-TES-SA-DME-E18-2, 2-((2-(N-(2-(dimethylamino)ethyl)sulfamoyl)ethyl)amino)-2-((((9Z,12Z)-octadeca-9,12-dienoyl)oxy)methyl)propane-1,3-diyl (9Z,9′Z,12Z,12′Z)-bis(octadeca-9,12-dienoate)] | particularly high potency
5 | CCCCCCCCOC(=O)CC(CC(=O)OCCCCCCCC)(OC(=O)CCN(C)C)C(=O)OCCCCCCCC [TL1-01D-DMA, trioctyl 2-((3-(dimethylamino)propanoyl)oxy)propane-1,2,3-tricarboxylate] | particularly high potency
6 | CCCCCCCCCCCCCCOC(=O)CC(CC(=O)OCCCCCCCCCCCCCC)(OC(=O)CCN(C)C)C(=O)OCCCCCCCCCCCCCC [TL1-04D-DMA] | particularly high potency
